≈ marks a conversion by molar mass, not a printed value.
Assays:
[1] = system: Staphylococcus aureus-SMITH (GC 4543); assay: Acute lethal infection in mice (ED50); assay type: in vivo; conditions: female CD-1 mice, intraperitoneal challenge, intravenous dose 30 min. after infection, 7 day survival ratios
In short: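 Bacteria suspended in Trypticase Soy Broth or hog gastric mucin are injected intraperitoneally into female CD-1 mice at a dose killing untreated animals within 24-48 hr. Thirty minutes later, test agent is administered intravenously. Survival at day 7 is scored.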

Escherichia coli = assay: In vitro antibacterial evaluation: minimum inhibitory concentration (MIC), broth dilution method; assay type: cell-based
In short: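 Test strains, among them recent clinical isolates carrying methicillin, penicillin and/or vancomycin resistance, were inoculated at 5×10^5 CFU/mL. A broth dilution series spanning 64-0.06 μg/mL in Muller-Hinton II […] (NCCLS M7-A2) defined the MIC as the lowest growth-inhibiting concentration.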

Staphylococcus sp. = assay: as above; assay type: cell-based; conditions: for MIC Staphylococcus aureus (ATCC 29213) / MIC Staphylococcus aureus (GC 1131) / MIC Staphylococcus aureus (GC 3051) / MIC Staphylococcus aureus (GC 3053) / MIC Staphylococcus aureus (GC 4541) / MIC Staphylococcus aureus (GC 4542) / MIC Staphylococcus aureus (GC 4544) / MIC Staphylococcus aureus (GC 4545): broth dilution, 18 hours at 35° C.
In short: (§1)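 NCCLS M7-A2 broth dilution; Muller-Hinton II […]; 5×10^5 CFU/mL; 64-0.06 μg/mL. MIC = lowest concentration with no growth.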

Enterococcus sp. = assay: as above; assay type: cell-based
In short: as §1

Streptococcus sp. = assay: as above; assay type: cell-based
In short: as §1

[2] = broth dilution, inoculum 5×10^5 CFU/mL, 18 hours at 35° C.

For `COc1ccc(Oc2cccc(C3OCC4OC(OC5C(CO)OC(Oc6ccc(CC7NC(=O)C(C(C)c8ccccc8)NC(=O)CNC(=O)C(CO)NC(=O)C(C(O)C8CNC(=N)N8C8OC(CO)C(O)C(O)C8O)NC(=O)C(C(O)C8CNC(=N)N8)NC7=O)cc6)C(O)C5O)C(O)C(O)C4O3)c2)cc1` (stereo not shown) [Example 180], the median effective dose (ED50), Staphylococcus aureus-SMITH (GC 4543) [1] was 0.05 mg/kg, the “MIC Escherichia coli (ATCC 25922)” value (Escherichia coli; strain ATCC 25922) was greater than 64 µg/mL and the “MIC Escherichia coli (GC 4559)” value (Escherichia coli; strain GC 4559) was 64 µg/mL (≈ 42.5 µM). The “MIC Escherichi coli (GC 4560)” value (Escherichia coli; strain GC 4560) was 2 µg/mL (≈ 1.33 µM), the “MIC Staphylococcus aureus (ATCC 29213)” value (Staphylococcus sp.; 5×10^5 CFU/mL) was 2 µg/mL (≈ 1.33 µM) and the “MIC Staphylococcus aureus (GC 1131)” value (Staphylococcus sp.; 5×10^5 CFU/mL) was 2 µg/mL (≈ 1.33 µM). The “MIC Staphylococcus aureus (GC 3051)” value (Staphylococcus sp.; 5×10^5 CFU/mL) was 1 µg/mL (≈ 0.664 µM), the “MIC Staphylococcus aureus (GC 3053)” value (Staphylococcus sp.; 5×10^5 CFU/mL) was 2 µg/mL (≈ 1.33 µM) and the “MIC Staphylococcus aureus (GC 4541)” value (Staphylococcus sp.; 5×10^5 CFU/mL) was 2 µg/mL (≈ 1.33 µM). For the same compound, the “MIC Staphylococcus aureus (GC 4542)” value (Staphylococcus sp.; 5×10^5 CFU/mL) was 2 µg/mL (≈ 1.33 µM), the “MIC Staphylococcus aureus (GC 4544)” value (Staphylococcus sp.; 5×10^5 CFU/mL) was 2 µg/mL (≈ 1.33 µM) and the “MIC Staphylococcus aureus (GC 4545)” value (Staphylococcus sp.; 5×10^5 CFU/mL) was 2 µg/mL (≈ 1.33 µM). For the same compound, the “MIC Staphylococcus aureus (ATCC 29213)” value (Staphylococcus sp.; strain ATCC 29213) was 2 µg/mL (≈ 1.33 µM), the “MIC Staphylococcus aureus (GC 1131)” value (Staphylococcus sp.; strain GC 1131) was 2 µg/mL (≈ 1.33 µM) and the “MIC Staphylococcus aureus (GC 3051)” value (Staphylococcus sp.; strain GC 3051) was 1 µg/mL (≈ 0.664 µM). The “MIC Staphylococcus aureus (GC 3053)” value (Staphylococcus sp.; strain GC 3053) was 2 µg/mL (≈ 1.33 µM), the “MIC Staphylococcus aureus (GC 4541)” value (Staphylococcus sp.; strain GC 4541) was 2 µg/mL (≈ 1.33 µM) and the “MIC Staphylococcus aureus (GC 4542)” value (Staphylococcus sp.; strain GC 4542) was 2 µg/mL (≈ 1.33 µM). The “MIC Staphylococcus aureus-SMITH (GC 4543)” value (Staphylococcus sp.; strain GC 4543) was 2 µg/mL (≈ 1.33 µM), the “MIC Staphylococcus aureus (GC 4544)” value (Staphylococcus sp.; strain GC 4544) was 2 µg/mL (≈ 1.33 µM) and the “MIC Staphylococcus aureus (GC 4545)” value (Staphylococcus sp.; strain GC 4545) was 2 µg/mL (≈ 1.33 µM). The “MIC Staphylococcus haemolyticus (GC 4546)” value (Staphylococcus sp.; strain GC 4546) was 2 µg/mL (≈ 1.33 µM), the “MIC Coagulase Negative Staphylococcus (GC 4547)” value (Staphylococcus sp.; strain GC 4547) was 2 µg/mL (≈ 1.33 µM) and the “MIC Coagulase Negative Staphylococcus (GC 4548)” value (Staphylococcus sp.; strain GC 4548) was 1 µg/mL (≈ 0.664 µM). For the same compound, the “MIC Coagulase Negative Staphylococcus (GC 4549)” value (Staphylococcus sp.; strain GC 4549) was 1 µg/mL (≈ 0.664 µM), the “MIC Coagulase Negative Staphylococcus (GC 4551)” value (Staphylococcus sp.; strain GC 4551) was 1 µg/mL (≈ 0.664 µM) and the “MIC Coagulase Negative Staphylococcus (GC 6257)” value (Staphylococcus sp.; strain GC 6257) was 0.5 µg/mL (≈ 0.332 µM). The “MIC Enterococcus avium (GC 4558)” value (Enterococcus sp.; [2]) was 2 µg/mL (≈ 1.33 µM), the “MIC Enterococcus faecalis (ATCC 29212)” value (Enterococcus sp.; [2]) was 4 µg/mL (≈ 2.66 µM) and the “MIC Enterococcus faecalis (GC 2242)” value (Enterococcus sp.; [2]) was 4 µg/mL (≈ 2.66 µM). The “MIC Enterococcus faecalis (GC 2691)” value (Enterococcus sp.; [2]) was 2 µg/mL (≈ 1.33 µM), the “MIC Enterococcus faecalis (GC 3059)” value (Enterococcus sp.; [2]) was 2 µg/mL (≈ 1.33 µM) and the “MIC Enterococcus faecalis (GC 4552)” value (Enterococcus sp.; [2]) was 2 µg/mL (≈ 1.33 µM). For the same compound, the “MIC Enterococcus faecalis (GC 4553)” value (Enterococcus sp.; [2]) was 2 µg/mL (≈ 1.33 µM), the “MIC Enterococcus faecalis (GC 4554)” value (Enterococcus sp.; [2]) was 2 µg/mL (≈ 1.33 µM) and the “MIC Enterococcus faecalis (GC 6189)” value (Enterococcus sp.; [2]) was 2 µg/mL (≈ 1.33 µM). The “MIC Enterococcus faecium (GC 2243)” value (Enterococcus sp.; [2]) was 2 µg/mL (≈ 1.33 µM), the “MIC Enterococcus faecium (GC 4556)” value (Enterococcus sp.; [2]) was 2 µg/mL (≈ 1.33 µM) and the “MIC Enterococcus faecium (GC 4557)” value (Enterococcus sp.; [2]) was 2 µg/mL (≈ 1.33 µM). The “MIC Enterococcus faecalis (ATCC 29212)” value (Enterococcus sp.; strain ATCC 29212) was 4 µg/mL (≈ 2.66 µM), the “MIC Enterococcus faecalis (GC 2242)” value (Enterococcus sp.; strain GC 2242) was 4 µg/mL (≈ 2.66 µM) and the “MIC Enterococcus faecium (GC 2243)” value (Enterococcus sp.; strain GC 2243) was 2 µg/mL (≈ 1.33 µM). For the same compound, the “MIC Enterococcus faecalis (GC 2691)” value (Enterococcus sp.; strain GC 2691) was 2 µg/mL (≈ 1.33 µM), the “MIC Enterococcus faecalis (GC 3059)” value (Enterococcus sp.; strain GC 3059) was 2 µg/mL (≈ 1.33 µM) and the “MIC Enterococcus faecalis (GC 4552)” value (Enterococcus sp.; strain GC 4552) was 2 µg/mL (≈ 1.33 µM). For the same compound, the “MIC Enterococcus faecalis (GC 4553)” value (Enterococcus sp.; strain GC 4553) was 2 µg/mL (≈ 1.33 µM), the “MIC Enterococcus faecalis (GC 4554)” value (Enterococcus sp.; strain GC 4554) was 2 µg/mL (≈ 1.33 µM) and the “MIC Enterococcus faecium (GC 4556)” value (Enterococcus sp.; strain GC 4556) was 2 µg/mL (≈ 1.33 µM). For the same compound, the “MIC Enterococcus faecium (GC 4557)” value (Enterococcus sp.; strain GC 4557) was 2 µg/mL (≈ 1.33 µM), the “MIC Enterococcus avium (GC 4558)” value (Enterococcus sp.; strain GC 4558) was 2 µg/mL (≈ 1.33 µM) and the “MIC Enterococcus faecalis (GC 6189)” value (Enterococcus sp.; strain GC 6189) was 2 µg/mL (≈ 1.33 µM). For the same compound, the “MIC Streptococcus agalactiae (GC 4564)” value (Streptococcus sp.; [2]) was less than 0.06 µg/mL, the “MIC Streptococcus pneumoniae (ATCC 6301)” value (Streptococcus sp.; [2]) was less than 0.06 µg/mL and the “MIC Streptococcus pneumoniae (GC 1894)” value (Streptococcus sp.; [2]) was less than 0.06 µg/mL. For the same compound, the “MIC Streptococcus pneumoniae (GC 4565)” value (Streptococcus sp.; [2]) was less than 0.06 µg/mL, the “MIC Streptococcus pyogenes (GC 4563)” value (Streptococcus sp.; [2]) was less than 0.06 µg/mL and the “MIC Streptococcus pneumoniae (ATCC 6301)” value (Streptococcus sp.; strain ATCC 6301) was less than 0.06 µg/mL. The “MIC Streptococcus pneumoniae (GC 1894)” value (Streptococcus sp.; strain GC 1894) was less than 0.06 µg/mL, the “MIC Streptococcus pyogenes (GC 4563)” value (Streptococcus sp.; strain GC 4563) was less than 0.06 µg/mL and the “MIC Streptococcus agalactiae (GC 4564)” value (Streptococcus sp.; strain GC 4564) was less than 0.06 µg/mL. The “MIC Streptococcus pneumoniae (GC 4565)” value (Streptococcus sp.; strain GC 4565) was less than 0.06 µg/mL.

Reference: patent publication US8247211B2, “Glycopeptide antibiotics” (American Cyanamid Company, priority 2001, dated 2012)
